Source: publication PMC3823425 (Journal of Cellular and Molecular Medicine, 2012)
Entries after “also recorded” stand apart in the source; their conditions may differ. Where two headings read alike, the source gives them in different places.

How the values were obtained:
HUVEC cells [1] = test: b-FGF-driven HUVEC proliferation; format: cell-based; details: Homo sapiens, read-out: IC50 bFGF-driven HUVECs proliferation
PDGFRβ [2] = biological target: PDGFRβ (Mus musculus, UniProt P05622); test: PDGFBB-induced PDGFRβ autophosphorylation in Swiss3T3; format: cell-based, rat
Sequence of PDGFRβ (Mus musculus, UniProt P05622) (P05622 32-1098): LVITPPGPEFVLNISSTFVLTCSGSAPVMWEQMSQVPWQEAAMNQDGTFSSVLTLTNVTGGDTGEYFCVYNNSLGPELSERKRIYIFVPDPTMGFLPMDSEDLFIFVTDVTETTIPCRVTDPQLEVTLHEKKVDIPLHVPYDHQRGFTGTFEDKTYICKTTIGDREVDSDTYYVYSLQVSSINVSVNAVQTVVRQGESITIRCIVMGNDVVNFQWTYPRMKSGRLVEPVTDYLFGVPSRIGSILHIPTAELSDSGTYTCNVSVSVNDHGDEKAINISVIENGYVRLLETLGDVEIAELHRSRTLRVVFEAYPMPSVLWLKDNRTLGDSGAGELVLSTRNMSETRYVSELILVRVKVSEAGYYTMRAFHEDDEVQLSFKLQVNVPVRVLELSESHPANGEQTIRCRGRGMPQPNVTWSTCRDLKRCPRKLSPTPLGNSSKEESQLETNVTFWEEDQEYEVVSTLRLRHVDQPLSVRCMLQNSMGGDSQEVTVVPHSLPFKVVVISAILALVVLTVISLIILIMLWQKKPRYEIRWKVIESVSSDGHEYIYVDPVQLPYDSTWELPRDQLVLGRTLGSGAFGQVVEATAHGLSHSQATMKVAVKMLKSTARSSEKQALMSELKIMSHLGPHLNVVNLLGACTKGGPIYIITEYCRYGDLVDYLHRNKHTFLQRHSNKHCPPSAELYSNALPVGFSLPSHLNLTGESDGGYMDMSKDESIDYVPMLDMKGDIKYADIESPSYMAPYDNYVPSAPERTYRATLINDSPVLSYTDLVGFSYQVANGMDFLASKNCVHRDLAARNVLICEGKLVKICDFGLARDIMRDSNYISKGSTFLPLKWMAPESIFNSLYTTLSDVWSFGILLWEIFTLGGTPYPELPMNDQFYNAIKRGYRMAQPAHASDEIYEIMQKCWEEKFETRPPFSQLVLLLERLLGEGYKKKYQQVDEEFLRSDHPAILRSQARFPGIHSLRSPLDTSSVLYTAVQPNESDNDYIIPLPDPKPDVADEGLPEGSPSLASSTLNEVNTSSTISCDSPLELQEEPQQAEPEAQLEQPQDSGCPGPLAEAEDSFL

HUVEC cells [3] = test: VEGF-driven HUVEC proliferation; format: cell-based; details: Homo sapiens, read-out: IC50 VEGF-driven HUVECs proliferation
FGFR1 [4] = biological target: T1, FGFR1 (Homo sapiens, UniProt P11362); test: bFGF-induced FGFR1 autophosphorylation in HUVEC; format: cell-based; details: b-FGF 25 ng/ml
Target sequence in this assay (P11362 22-822): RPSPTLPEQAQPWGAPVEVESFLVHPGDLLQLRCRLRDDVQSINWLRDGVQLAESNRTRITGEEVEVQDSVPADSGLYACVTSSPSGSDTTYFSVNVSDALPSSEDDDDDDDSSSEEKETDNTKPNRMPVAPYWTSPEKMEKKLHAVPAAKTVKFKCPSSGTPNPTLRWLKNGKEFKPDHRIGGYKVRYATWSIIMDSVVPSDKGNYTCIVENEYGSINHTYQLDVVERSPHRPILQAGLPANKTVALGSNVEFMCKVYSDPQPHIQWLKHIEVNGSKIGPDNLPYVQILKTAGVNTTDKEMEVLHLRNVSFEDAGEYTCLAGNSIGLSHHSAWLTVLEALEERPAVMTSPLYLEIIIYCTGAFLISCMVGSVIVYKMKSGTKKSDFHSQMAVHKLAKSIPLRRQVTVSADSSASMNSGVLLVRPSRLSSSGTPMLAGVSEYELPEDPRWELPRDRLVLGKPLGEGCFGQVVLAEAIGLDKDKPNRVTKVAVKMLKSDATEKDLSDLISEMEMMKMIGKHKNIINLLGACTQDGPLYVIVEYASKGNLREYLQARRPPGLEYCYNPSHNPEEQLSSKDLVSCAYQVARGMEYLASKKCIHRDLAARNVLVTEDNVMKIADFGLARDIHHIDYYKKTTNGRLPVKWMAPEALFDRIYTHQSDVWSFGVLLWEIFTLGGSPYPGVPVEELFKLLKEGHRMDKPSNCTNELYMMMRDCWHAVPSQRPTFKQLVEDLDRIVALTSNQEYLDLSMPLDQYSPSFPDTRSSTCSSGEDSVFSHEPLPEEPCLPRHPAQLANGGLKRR

VEGFR1 = VEGFR1 (Homo sapiens, UniProt P17948); test: ELISA kinase assay VEGFR1; format: biochemical
[5] = Tissue distribution in tumour-bearing nude mice; format: in vivo; details: for concentration at 21 day: nude, mouse, oral, 10 mg/kg
[6] = tested on: renal carcinoma xenograft (No.213847); test: CD31 immunohistochemistry of tumour microvessels; format: in vivo, nude mice; details: five consecutive days
[7] = tested on: 16 different tumour cell lines; test: Tumour cell lines proliferation in vitro; format: cell-based; details: read-out: average IC50 against 16 tumour cell lines proliferation
VEGFR2 [8] = biological target: T2, VEGFR2 (Homo sapiens, UniProt P35968); test: Cellular VEGFR2 autophosphorylation reversible assay; format: cell-based; details: HUVEC, 1 μmol/L for 4 hrs
Target sequence in this assay (P35968 20-1356): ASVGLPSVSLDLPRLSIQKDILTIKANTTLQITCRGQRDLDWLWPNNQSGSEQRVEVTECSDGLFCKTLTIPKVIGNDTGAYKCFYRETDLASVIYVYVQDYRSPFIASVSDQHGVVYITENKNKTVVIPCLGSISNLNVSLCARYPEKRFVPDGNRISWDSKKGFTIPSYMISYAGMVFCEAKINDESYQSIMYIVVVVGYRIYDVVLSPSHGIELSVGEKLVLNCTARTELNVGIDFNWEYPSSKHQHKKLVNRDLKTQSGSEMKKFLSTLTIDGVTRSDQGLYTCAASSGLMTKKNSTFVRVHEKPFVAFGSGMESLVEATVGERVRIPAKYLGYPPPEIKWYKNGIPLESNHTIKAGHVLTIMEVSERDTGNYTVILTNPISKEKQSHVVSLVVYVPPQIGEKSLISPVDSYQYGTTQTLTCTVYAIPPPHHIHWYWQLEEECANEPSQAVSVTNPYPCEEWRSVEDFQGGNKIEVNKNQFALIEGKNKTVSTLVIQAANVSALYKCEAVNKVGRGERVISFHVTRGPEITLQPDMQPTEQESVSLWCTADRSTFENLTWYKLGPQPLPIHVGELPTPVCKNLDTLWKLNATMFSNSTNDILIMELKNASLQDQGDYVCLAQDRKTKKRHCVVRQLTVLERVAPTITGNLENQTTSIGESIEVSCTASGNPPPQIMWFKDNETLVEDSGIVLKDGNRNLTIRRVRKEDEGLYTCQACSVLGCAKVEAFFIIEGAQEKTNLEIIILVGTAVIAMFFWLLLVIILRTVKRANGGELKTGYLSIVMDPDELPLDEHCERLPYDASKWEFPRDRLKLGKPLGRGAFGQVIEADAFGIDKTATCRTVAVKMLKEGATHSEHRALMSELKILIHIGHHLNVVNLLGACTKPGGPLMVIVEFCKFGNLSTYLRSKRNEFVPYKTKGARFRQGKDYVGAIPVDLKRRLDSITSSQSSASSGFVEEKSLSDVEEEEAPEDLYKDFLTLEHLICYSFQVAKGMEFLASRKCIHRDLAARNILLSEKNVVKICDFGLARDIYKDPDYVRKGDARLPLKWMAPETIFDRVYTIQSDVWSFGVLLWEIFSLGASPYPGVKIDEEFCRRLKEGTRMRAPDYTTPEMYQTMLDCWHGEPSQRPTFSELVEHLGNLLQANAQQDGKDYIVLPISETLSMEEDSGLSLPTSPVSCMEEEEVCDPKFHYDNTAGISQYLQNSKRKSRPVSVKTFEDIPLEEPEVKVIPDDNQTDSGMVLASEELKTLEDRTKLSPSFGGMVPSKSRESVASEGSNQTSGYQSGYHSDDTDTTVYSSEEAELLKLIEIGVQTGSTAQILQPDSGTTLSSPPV

FGFR1 [9] = biological target: T1, FGFR1; test: biochemical
Target sequence in this assay (P11362 22-822, species assumed): as the sequence (P11362 22-822) above

RET = RET (Homo sapiens, UniProt P07949); test: ELISA kinase assay RET; format: biochemical
EPH-A2 = EPH-A2 (Homo sapiens, UniProt P29317); test: ELISA kinase assay EPH-A2; format: biochemical; details: IC50 EPHA2, ELISA
VEGFR2 [10] = biological target: T2, VEGFR2
Target sequence in this assay (P35968 20-1356): as the sequence (P35968 20-1356) above

PDGFRβ [11] = biological target: T3, PDGFRβ (Homo sapiens, UniProt P09619); details: read-out: IC50 PDGFRβ phosphorylation in vitro assay; ref 17 Bello et al.; cited from earlier work
[12] = tested on: 786-O renal carcinoma xenograft; test: Tumour xenograft 786-O; format: in vivo, nude mice; details: 786-O model, dosages below 20 mg/kg
PDGFRβ [13] = biological target: T3, PDGFRβ; test: ELISA kinase assay PDGFRβ; format: biochemical
PDGFRα [14] = biological target: T4, PDGFRα (Homo sapiens, UniProt P16234); details: read-out: IC50 PDGFRα phosphorylation in vitro assay; ref 17 Bello et al.; cited from earlier work
T4 sequence (P16234 24-1089, species assumed): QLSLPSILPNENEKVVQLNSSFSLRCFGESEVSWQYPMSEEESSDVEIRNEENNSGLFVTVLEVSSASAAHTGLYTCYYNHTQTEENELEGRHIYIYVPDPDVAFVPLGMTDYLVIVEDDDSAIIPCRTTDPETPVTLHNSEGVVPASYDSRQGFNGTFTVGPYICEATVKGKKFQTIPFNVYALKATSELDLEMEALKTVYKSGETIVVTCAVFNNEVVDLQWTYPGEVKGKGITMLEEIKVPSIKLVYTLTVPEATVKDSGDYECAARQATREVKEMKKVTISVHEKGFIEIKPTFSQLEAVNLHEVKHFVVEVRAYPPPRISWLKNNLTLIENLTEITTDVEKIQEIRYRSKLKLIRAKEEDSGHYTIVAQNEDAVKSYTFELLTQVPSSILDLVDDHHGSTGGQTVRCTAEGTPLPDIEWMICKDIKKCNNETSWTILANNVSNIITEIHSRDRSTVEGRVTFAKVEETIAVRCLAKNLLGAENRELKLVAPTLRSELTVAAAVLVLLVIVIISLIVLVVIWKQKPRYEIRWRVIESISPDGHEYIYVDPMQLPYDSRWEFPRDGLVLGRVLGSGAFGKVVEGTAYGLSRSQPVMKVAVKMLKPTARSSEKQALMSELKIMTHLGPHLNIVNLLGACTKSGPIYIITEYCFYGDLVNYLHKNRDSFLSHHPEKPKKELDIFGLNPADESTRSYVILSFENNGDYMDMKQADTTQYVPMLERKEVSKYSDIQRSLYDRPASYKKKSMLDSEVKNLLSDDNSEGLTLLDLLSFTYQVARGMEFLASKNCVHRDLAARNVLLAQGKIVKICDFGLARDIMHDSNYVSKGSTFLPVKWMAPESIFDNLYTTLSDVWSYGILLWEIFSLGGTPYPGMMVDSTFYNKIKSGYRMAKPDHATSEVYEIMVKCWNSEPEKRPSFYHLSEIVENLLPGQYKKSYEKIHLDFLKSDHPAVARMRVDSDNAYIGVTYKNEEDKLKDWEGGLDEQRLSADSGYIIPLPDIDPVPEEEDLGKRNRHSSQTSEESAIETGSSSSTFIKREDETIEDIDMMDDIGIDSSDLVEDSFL

PDGFRα [15] = biological target: T4, PDGFRα; test: ELISA kinase assay PDGFRα; format: biochemical
[16] = tested on: Bxpc-3 pancreatic cancer xenograft; test: Tumour xenograft Bxpc-3; format: in vivo, nude mice; details: Bxpc-3 model, dosages below 20 mg/kg
[17] = tested on: renal carcinoma xenograft No.20090223; test: Patient-derived renal carcinoma xenograft No.20090223; format: in vivo, nude mice
ERK1/2 and AKT = test: VEGF-induced activation of ERK1/2 and AKT; format: cell-based; details: VEGF165 50 ng/ml
c-Src = c-Src (Homo sapiens, UniProt P12931); test: biochemical
[18] = Toxicity observed in panel of human xenograft models; format: in vivo, nude mice; details: p.o., 5 days per week, 5–20 mg/kg
[19] = tested on: chicken chorioallantoic membrane; test: Chicken chorioallantoic membrane assay; format: in vivo; details: 48 hrs
[20] = Plasma pharmacokinetics after p.o. administration; format: in vivo, rats
VEGFR2 [21] = biological target: T2, VEGFR2; format: biochemical; details: pre-incubation 30 min., 100-fold dilution
Target sequence in this assay (P35968 834-1162 limits assumed): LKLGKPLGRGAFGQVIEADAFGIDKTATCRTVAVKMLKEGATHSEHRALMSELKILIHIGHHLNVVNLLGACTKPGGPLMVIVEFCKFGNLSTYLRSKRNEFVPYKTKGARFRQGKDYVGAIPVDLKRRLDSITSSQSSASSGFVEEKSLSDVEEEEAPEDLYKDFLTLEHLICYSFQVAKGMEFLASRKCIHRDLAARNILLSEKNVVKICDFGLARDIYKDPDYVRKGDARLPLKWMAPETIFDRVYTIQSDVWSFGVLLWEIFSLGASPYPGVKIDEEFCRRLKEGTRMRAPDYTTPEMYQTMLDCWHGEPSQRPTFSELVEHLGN

VEGFR2 [22] = biological target: T2, VEGFR2; format: biochemical; details: varying concentrations of ATP
Target sequence in this assay (P35968 834-1162 limits assumed): as above

VEGFR2 [23] = biological target: T2, VEGFR2; test: biochemical
Target sequence in this assay (P35968 834-1162 limits assumed): as above

c-Kit = c-Kit (Homo sapiens, UniProt P10721); test: ELISA kinase assay c-Kit; format: biochemical
EPH-B2 = EPH-B2 (Homo sapiens, UniProt P29323); test: ELISA kinase assay EPH-B2; format: biochemical
Sequence of EPH-B2 (P29323 621-884 limits assumed, species assumed): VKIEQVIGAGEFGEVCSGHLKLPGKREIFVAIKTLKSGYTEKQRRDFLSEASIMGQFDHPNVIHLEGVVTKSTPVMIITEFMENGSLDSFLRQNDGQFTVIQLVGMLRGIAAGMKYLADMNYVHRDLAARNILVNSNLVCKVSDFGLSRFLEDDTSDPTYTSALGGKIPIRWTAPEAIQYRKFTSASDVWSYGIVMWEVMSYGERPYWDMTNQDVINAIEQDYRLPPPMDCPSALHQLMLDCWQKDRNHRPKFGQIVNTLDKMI

[24] = tested on: renal carcinoma xenograft (No.213847); test: PDGFRβ immunohistochemistry of tumour pericytes; format: in vivo, nude mice; details: 5 days
[25] = tested on: renal carcinoma xenograft No.213847; test: Patient-derived renal carcinoma xenograft No.213847; format: in vivo, nude mice
FGFR1 [26] = biological target: T1, FGFR1; details: molecular assay, versus sorafenib
Target sequence in this assay (P11362 22-822, species assumed): as the sequence (P11362 22-822) above

[27] = day 21 versus first administration

Structure (SMILES): CNC(=O)c1cc(Oc2ccc(NC(=O)Nc3ccc(Cl)c(C(F)(F)F)c3)cc2)ccn1 [Sorafenib, reference compound]
- IC50 (HUVEC cells [1]): 2260 nM
- PDGFRβ activation (PDGFRβ [2]; Swiss3T3, concentration not stated): potent inhibitory effects
- IC50 (HUVEC cells [3]): 337 nM
- bFGF-induced FGFR1 autophosphorylation / activation (FGFR1 [4]): potent inhibitory effects

Structure (SMILES): CNC(=O)c1cccc2cc(Oc3ccnc4cc(OCC5(N)CC5)c(OC)cc34)ccc12 [AL3810, 6-[[7-[(1-aminocyclopropyl)methoxy]-6-methoxy-4-quinolyl]oxy]-N-methyl-naphthalene-1-carboxamide]
- IC50 (VEGFR1): 12 nM
- exposure in liver, improvement versus first administration [5, 27]: 1.6 times
- exposure in lung, improvement versus first administration [5, 27]: 1.4 times
- exposure in renal tissue, improvement versus first administration [5, 27]: 2.1 times
- exposure in tumours, improvement versus first administration [5, 27]: 2.9 times
- concentration at 21 day ([5]; kidney): 398 ng/g
- concentration at 21 day ([5]; liver): 276 ng/g
- concentration at 21 day ([5]; lung): 208 ng/g
- concentration at 21 day ([5]; plasma): 7.8 ng/mL
- concentration at 21 day ([5]; tumour): 403 ng/g
- reduction of vessel density (CD31) ([6]; 5 mg/kg): 45%
- reduction of vessel density (CD31) ([6]; 10 mg/kg): 80%
- reduction of vessel density (CD31) ([6]; 20 mg/kg): 90%
- IC50 [7]: ~18700 nM
- VEGFR2 phosphorylation after inhibitor washout (VEGFR2 [8]; 6 hrs after removal): recovered substantially
- VEGFR2 phosphorylation after inhibitor washout (VEGFR2 [8]; 24 hrs after washout): total restoration
- IC50 (FGFR1 [9]): 7 nM
- IC50 (RET): 200 nM
- IC50 (EPH-A2): 6660 nM
- IC50 (HUVEC cells [1]): 140 nM
- Tyr996 phosphorylation of VEGFR2 (VEGFR2 [10]): inhibited
- VEGFR2 autophosphorylation (VEGFR2 [10]): almost completely blocked
- IC50 (PDGFRβ [11]): 525 nM
- tumour response [12]: tumour regression
- IC50 (PDGFRβ [13]): 8 nM
- IC50 (PDGFRα [14]): 175 nM
- PDGFBB-induced PDGFRβ autophosphorylation (PDGFRβ [2]; 100 nmol/l, Swiss3T3, PDGF-BB 40 ng/ml): inhibited; also recorded: almost completely block
- IC50 (PDGFRα [15]): 13 nM
- tumour response [16]: tumour regression
- T/C ([17]; No.20090223, 5 mg/kg p.o., 5 days per week): 13.3%
- tumour response ([17]; No.20090223, 10–20 mg/kg): tumour regression
- VEGF-induced activation of ERK1/2 and AKT (ERK1/2 and AKT): dramatically inhibited
- IC50 (c-Src): 4900 nM
- toxicity in xenograft-bearing mice [18]: no obvious toxicity observed
- inhibition rate of blood vessel numbers and branching ([19]; 0.3 nmol/egg): 45.4%
- inhibition rate of blood vessel numbers and branching ([19]; 1 nmol/egg): 82.5%
- bioavailability ([20]; rat, in vivo, po): 31%
- Tmax ([20]; rat, plasma, po, 10 mg): 6 h
- concentration at 24 hrs ([20]; rat, plasma, po, 10 mg): < 50 ng/mL
- maximal plasma concentration ([20]; rats, 10 mg p.o.): ~1000 ng/mL
- reversibility of VEGFR2 inhibition (VEGFR2 [21]): reversible inhibitor
- mode of inhibition versus ATP (VEGFR2 [22]): ATP competitive
- IC50 (VEGFR2 [23]): 4 nM
- IC50 (c-Kit): 527 nM
- IC50 (HUVEC cells [3]): 42 nM
- IC50 (EPH-B2): 902 nM
- reduction of PDGFRβ positive cells ([24]; 5 mg/kg): 52%
- reduction of PDGFRβ positive cells ([24]; 10 mg/kg): 73%
- reduction of PDGFRβ positive cells ([24]; 20 mg/kg): 86%
- T/C ([25]; No.213847, 5 mg/kg p.o., 5 days per week): 9.01%
- tumour response ([25]; No.213847, 10–20 mg/kg): tumour regression
- bFGF-induced FGFR1 autophosphorylation / activation (FGFR1 [4]): blocked
- IC50 against FGFR lower than sorafenib (FGFR1 [26]): 25 fold
